Laboratory results from US7393812B2, “Methylidene mevalonates and their use as herbicides” (Dow AgroSciences LLC, priority 2004, dated 2008).

What was measured:
Test in all cases: Post-emergent evaluation
Type in all cases: in vivo
Conditions in all cases: after 2 weeks
[1] = system: corn (Zea mays, ZEAMX)
Description: (§1) Seeds of the desired test plant species were planted in Grace-Sierra MetroMix® 306 planting mixture, which typically has a pH of 6.0 to 6.8 and an organic matter content of about 30 percent, in plastic pots with a surface area of 64 square centimeters. When required to ensure good germination and healthy plants, a fungicide treatment and/or other chemical or physical treatment was applied. The plants were grown for 7-21 days in a greenhouse with an approximate 15 hr photoperiod which was maintained at about 23-29° C. during the day and 22-28° C. during the night. Nutrients and water were added on a regular basis and supplemental lighting was provided with overhead metal halide 1000-Watt lamps as necessary. The plants were employed for testing when they reached the first or second true leaf stage.
(§2) A weighed amount, determined by the highest rate to be tested, of each test compound was placed in a 20 mL glass vial and was dissolved in 4 mL of a 97:3 v/v (volume/volume) mixture of acetone and dimethyl sulfoxide (DMSO) to obtain concentrated stock solutions. […] The concentrated stock solutions obtained were diluted with an aqueous mixture containing acetone, water, isopropyl alcohol, DMSO, Atplus 411F crop oil concentrate, and Triton X-155 surfactant in a 48.5:39:10:1.5:1.0:0.02 v/v ratio to obtain spray solutions of known concentration. The solutions containing the highest concentration to be tested were prepared by diluting 2 mL aliquots of the stock solution with 13 mL of the mixture and lower concentrations were prepared by serial dilution of the stock solution. Approximately 1.5 mL aliquots of each solution of known concentration were sprayed evenly onto each of the test plant pots using a DeVilbiss atomizer driven by compressed air pressure of 2 to 4 psi ([…]) to obtain thorough coverage of each plant. Control plants were sprayed in the same manner with the aqueous mixture. In this test an application rate of 1 ppm results in the application of approximately 1 g/Ha.
(§3) The treated plants and control plants were placed in a greenhouse as described above and watered by sub-irrigation to prevent wash-off of the test compounds. After 2 weeks the condition of the test plants as compared with that of the untreated plants was determined visually and scored on a scale of 0 to 100 percent where 0 corresponds to no injury and 100 corresponds to complete kill. Species abbreviations as described for Table I with the following additions: soybean (Glycine max, GLXMA), rape (Brassica napus, BRSNN), chickweed (Stellaria media, STEME), cocklebur (Xanthium strumarium XANST), lambsquarters (Chenopodium album, CHEAL), violet (Viola tricolor, VIOTR), bindweed (Polygonum convolvulus, POLCO), spurge (Euphorbia heterophylla, EPHHL), Canada thistle (Cirsium arvense, CIRAR), corn (Zea mays, ZEAMX), rice (Oryza sativa, ORYSA), wheat (Triticum aestivum, TRZAS), crabgrass (Digitaria sanguinalis, DIGSA), shattercane (Sorghum vulgare, SORVU) and yellow nutsedge (Cyperus esculentus, CYPES).

[2] = system: spurge (Euphorbia heterophylla, EPHHL)
Description: as §1, §2, §3

[3] = system: rice (Oryza sativa, ORYSA)
Description: as §1, §2, §3

[4] = system: blackgrass (Alopecurus myosuroides, ALOMY)
Description: as §1, §2, §3

[5] = system: Canada thistle (Cirsium arvense, CIRAR)
Description: as §1, §2, §3

[6] = system: wild oats (Avena fatua, AVEFA)
Description: as §1, §2, §3

[7] = system: cocklebur (Xanthium strumarium XANST)
Description: as §1, §2, §3

[8] = system: rape (Brassica napus, BRSNN)
Description: as §1, §2, §3

[9] = system: lambsquarters (Chenopodium album, CHEAL)
Description: as §1, §2, §3

[10] = system: bindweed (Polygonum convolvulus, POLCO)
Description: as §1, §2, §3

[11] = system: wheat (Triticum aestivum, TRZAS)
Description: as §1, §2, §3

[12] = system: soybean (Glycine max, GLXMA)
Description: as §1, §2, §3

[13] = system: pigweed (Amaranthus spp., AMARE)
Description: as §1, §2, §3

## C=C(CO)C(C)(O)CC(=O)O (centres unmarked) [methylidene mevalonate, 3-hydroxy-4-(hydroxymethyl)-3-methylpent-4-enoic acid]
[1]; spray concentration 125 ppm
  Postemergent % Control: 0%
[1]; spray concentration 250 ppm
  Postemergent % Control: 20%
[1]; spray concentration 500 ppm
  Postemergent % Control: 60%
[1]; spray concentration 1000 ppm
  Postemergent % Control: 98%
[1]; spray concentration 2000 ppm
  Postemergent % Control: 98%
[2]; spray concentration 125 ppm
  Postemergent % Control: 30%
[2]; spray concentration 250 ppm
  Postemergent % Control: 30%
[2]; spray concentration 500 ppm
  Postemergent % Control: 50%
[2]; spray concentration 1000 ppm
  Postemergent % Control: 60%
[2]; spray concentration 2000 ppm
  Postemergent % Control: 70%
[3]; spray concentration 125 ppm
  Postemergent % Control: 0%
[3]; spray concentration 250 ppm
  Postemergent % Control: 30%
[3]; spray concentration 500 ppm
  Postemergent % Control: 40%
[3]; spray concentration 1000 ppm
  Postemergent % Control: 80%
[3]; spray concentration 2000 ppm
  Postemergent % Control: 80%
[4]; spray concentration 125 ppm
  Postemergent % Control: 0%
[4]; spray concentration 250 ppm
  Postemergent % Control: 20%
[4]; spray concentration 500 ppm
  Postemergent % Control: 60%
[4]; spray concentration 1000 ppm
  Postemergent % Control: 70%
[4]; spray concentration 2000 ppm
  Postemergent % Control: 80%
[5]; spray concentration 125 ppm
  Postemergent % Control: 10%
[5]; spray concentration 250 ppm
  Postemergent % Control: 10%
[5]; spray concentration 500 ppm
  Postemergent % Control: 20%
[5]; spray concentration 1000 ppm
  Postemergent % Control: 40%
[5]; spray concentration 2000 ppm
  Postemergent % Control: 50%
[6]; spray concentration 125 ppm
  Postemergent % Control: 0%
[6]; spray concentration 250 ppm
  Postemergent % Control: 0%
[6]; spray concentration 500 ppm
  Postemergent % Control: 20%
[6]; spray concentration 1000 ppm
  Postemergent % Control: 85%
[6]; spray concentration 2000 ppm
  Postemergent % Control: 90%
[7]; spray concentration 125 ppm
  Postemergent % Control: 0%
[7]; spray concentration 250 ppm
  Postemergent % Control: 5%
[7]; spray concentration 500 ppm
  Postemergent % Control: 10%
[7]; spray concentration 1000 ppm
  Postemergent % Control: 20%
[7]; spray concentration 2000 ppm
  Postemergent % Control: 20%
[8]; spray concentration 125 ppm
  Postemergent % Control: 0%
[8]; spray concentration 250 ppm
  Postemergent % Control: 10%
[8]; spray concentration 500 ppm
  Postemergent % Control: 50%
[8]; spray concentration 1000 ppm
  Postemergent % Control: 50%
[8]; spray concentration 2000 ppm
  Postemergent % Control: 60%
[9]; spray concentration 125 ppm
  Postemergent % Control: 0%
[9]; spray concentration 250 ppm
  Postemergent % Control: 0%
[9]; spray concentration 500 ppm
  Postemergent % Control: 10%
[9]; spray concentration 1000 ppm
  Postemergent % Control: 50%
[9]; spray concentration 2000 ppm
  Postemergent % Control: 80%
[10]; spray concentration 125 ppm
  Postemergent % Control: 20%
[10]; spray concentration 250 ppm
  Postemergent % Control: 20%
[10]; spray concentration 500 ppm
  Postemergent % Control: 85%
[10]; spray concentration 1000 ppm
  Postemergent % Control: 90%
[10]; spray concentration 2000 ppm
  Postemergent % Control: 95%
[11]; spray concentration 125 ppm
  Postemergent % Control: 0%
[11]; spray concentration 250 ppm
  Postemergent % Control: 20%
[11]; spray concentration 500 ppm
  Postemergent % Control: 20%
[11]; spray concentration 1000 ppm
  Postemergent % Control: 70%
[11]; spray concentration 2000 ppm
  Postemergent % Control: 80%
[12]; spray concentration 125 ppm
  Postemergent % Control: 20%
[12]; spray concentration 250 ppm
  Postemergent % Control: 20%
[12]; spray concentration 500 ppm
  Postemergent % Control: 50%
[12]; spray concentration 1000 ppm
  Postemergent % Control: 80%
[12]; spray concentration 2000 ppm
  Postemergent % Control: 80%
[13]; spray concentration 125 ppm
  Postemergent % Control: 10%
[13]; spray concentration 250 ppm
  Postemergent % Control: 30%
[13]; spray concentration 500 ppm
  Postemergent % Control: 100%
[13]; spray concentration 1000 ppm
  Postemergent % Control: 100%
[13]; spray concentration 2000 ppm
  Postemergent % Control: 100%
